The values that follow come from patent US12496301B2, “Use of androgen receptor degrader for the treatment of spinal and bulbar muscular atrophy” (Arvinas Operations, Inc., priority 2023, dated 2025).

For one series, the system named is hAR100Q mice. As to the kind of experiment: Efficacy in hAR100Q murine model of SBMA (body weight, grip strength, treadmill, survival). It counts as in vivo, mouse. An excerpt: (§1) Male mice harboring approximately 73±14 copies of full-length human AR harboring 100 CAG repeats in exon 1 (hAR100Q) (“hAR100Q mice”) were used in this study. hAR100Q mice were obtained from mice (C57BL/6J background) expressing heterozygous human […] AR100Q (AR100Q+/−) under the control of the cytomegalovirus immediate-early enhancer and the chicken beta-actin (pCAGGS) promoter. These transgenic lines were maintained, and the colony expanded by breeding with C57BL/6J (Jackson Laboratory) wild-type (WT) mice.
(§2) A total of […] hAR100Q and 20 littermate controls were used for this study. Each genotype was divided into two groups of 10 (control vs Compound A) giving a total of four separate groups (WT control, WT Compound A, hAR100Q control, and hAR100Q Compound A). All mice were fed control chow beginning at 4 weeks of age. At 5 weeks of age, treated groups were switched to Compound A-formulated chow and the remaining mice were fed control chow. Body weights were recorded weekly starting at 5 weeks of age.
(§3) Compound A was formulated at 100 parts per million (ppm) Compound A in rodent chow (Purina #5015). This dose level (100 ppm) approximates a 15 mg/kg dose for a mouse that weighs 20 g and consumes 3 g of chow per day. For control chow, rodent chow (Purina #5015) was re-pelleted in an identical manner to the Compound A-formulated chow.
(§4) A grip strength apparatus was utilized to measure the force exerted by the forepaws only, or all four paws of mice once per week beginning at 7 weeks of age. The apparatus was placed on a sturdy flat lab bench and the apparatus's grid wire mesh was used for all four paws. Individual mice grasped a wire mesh (all four paws) and were gently pulled by the base of their tail to measure their maximum force exerted to maintain their grip. The grip strength assay was conducted 6 times per mouse, for all four paws.
(§5) A Touchscreen Treadmill was utilized to analyze length of time running at increasing speeds until exhaustion. Individual mice ran on a flat treadmill with a graded acceleration protocol consisting of 10 meters (m)/min. for the first 40 min., with the speed increasing thereafter by increments of 1 m/min. every 10 min. for 30 min., and then finally increasing speed by increments of 1 m/min. every 5 min. until the mice were exhausted. The exhaustion was determined by 5 consecutive seconds or 20 overall seconds of failure to exercise (by staying on shock rods at the start of the treadmill). Treadmill training was performed for 2 days before the first week of testing. The training protocol on day 1 consisted of 5 min. at 8 m/min, while day 2 consisted of 5 min. at 8 m/min. followed by 5 min. at 10 m/min.
(§6) In the murine model of SBMA used here (hereafter referred to as hAR100Q mice), which also expresses endogenous mouse AR, approximately 73±14 copies of full-length human AR with 100 CAG repeats (hAR100Q) are driven by the pCAGGS promoter (Chivet, M. et al. 2020, Cells 9, 325). Heterologous expression of hAR100Q results in muscle atrophy, motor deficits, and premature death (Chivet, M. et al. 2020, Cells 9, 325). Symptom onset starts as early as 8 weeks of age and get progressively worse until week 13-14, at which time mice are euthanized because of extreme immobility. In this study, male hAR100Q mice and littermate controls (10 mice in each group) were fed vehicle chow or Compound A-formulated chow at an approximate dose of 15 mg/kg. In-diet dosing was used in lieu of PO dosing due to the fragile nature of this disease model. Compound A-formulated chow was introduced at 5 weeks of age. In addition to weekly weight measurements, mice were evaluated using behavioral assays, including weekly grip strength measurements and forced treadmill tests at 11 weeks of age.

Assay in series [1]: as above
Type of series: in vivo, mouse.
Excerpt: as §1, §2, §3, §4, §5, §6

Series [2] has as its system polyQ-AR. As to the kind of experiment: Global proteomics in SBMA hiPSC-myotubes: polyQ-AR and specificity. It counts as cell-based, human. From the text:
(FIG. 12A). […] (FIG. 12C).

Series [3] has as its system polyQ-AR. As to the kind of experiment: polyQ-AR degradation in SBMA patient hiPSC-derived myotubes, capillary immunoassay. Conditions: two donor hiPSC lines, 24 hours. It counts as cell-based, human. On the procedure:
Lysates for hiPSC-derived myotubes were prepared in lysis buffer ([…], 50 mM sodium chloride, 1% NP-40, 1% SDS) supplemented with Halt Protease Inhibitor (78437 Thermo Fisher Scientific), Benzonase, and MgCl2 (1 mM final concentration). The lysates were cleared by centrifugation at 4° C. and supernatants were quantified using the BIO-RAD DC protein assay (5000112 BIO-RAD). The AR and protein levels were quantified by an automated capillary immunoassay experiment (ProteinSimple). The AR and Myosin Protein levels were quantified and normalized to total protein.
Control and SBMA hiPSCs were differentiated into myotubes as previously described (Caron, L. et al. 2016, STEM CELLS Transl. Med. 5, 1145-1161) using the skeletal muscle differentiation kit (Amsbio). hiPSCs were dissociated to single cells using Accutase and plated on Geltrex-coated 10 cm culture plates at a density of 200,000 cells per plate with SBMA hiPSCs in skeletal muscle induction media (SKM01, AMSBIO). Media changes were performed every second day until cells were confluent (˜7 days). The resulting myogenic precursor cells were then dissociated to single cells using Accutase and replated on Matrigel-coated 24-well tissue culture plate with 500 μL of cells at 35,000 cells per mL in skeletal myoblast media (SKM02, AMSBIO). Half media changes were performed every second day until myoblasts reached confluence (˜7 days). The media was then switched to myotube medium (SKM03, ASMBIO). Media changes every second day until myotube formation was confirmed by microscopy. Myotubes were treated on day 20 of differentiation (6 days' worth of SKM03 media) with compounds diluted in DMSO for a final DMSO concentration of 0.01% in SKM03 media. The cells were lysed 24 hours later in Pierce RIPA buffer (Cat. No. 89900, ThermoFisher) supplemented with 1× Halt protease inhibitor cocktail (Cat. No. 87786, ThermoFisher), 1 mM MgCl2, and 1 μL Benzonase Nuclease. AR protein was measured by capillary electrophoresis. […]

Series [4] can be described thus: Free fraction in mouse plasma. It counts as in vitro ADME.

“Also recorded” adds a separate entry of the source.

For `CC(C)N(CC1CCN(c2ncc(C(=O)N[C@H]3C(C)(C)[C@H](Oc4ccc(C#N)c(Cl)c4)C3(C)C)cn2)CC1)[C@H]1C[C@H](Oc2ccc3c(c2)C(=O)N(C2CCC(=O)NC2=O)C3=O)C1` (stereo partly drawn) [Compound A, N-((1r,3r)-3-(3-chloro-4-cyanophenoxy)-2,2,4,4-tetramethylcyclobutyl)-2-(4-((((1r,3r)-3-((2-(2,6-dioxopiperidin-3-yl)-1,3-dioxoisoindolin-5-yl)oxy)cyclobutyl)(isopropyl)amino)methyl)piperidin-1-yl)pyrimidine-5-carboxamide], the median lifespan in the series with hAR100Q mice (hAR100Q mice, formulated chow, birth to euthanasia) worked out at 151 days. In addition, in the series on hAR100Q mice (hAR100Q mice, week 11, chow approx. 15 mg/kg), the “muscle endurance, forced treadmill distance, hAR100Q mice” value is “performed as well as WT littermates”. Moreover, the “all paw grip strength in hAR100Q mice” value in the series with hAR100Q mice (hAR100Q mice, weekly from 7 weeks, chow approx. 15 mg/kg) is “delayed the decline and magnitude of grip strength decline”. The “body weight over time in hAR100Q mice” value in the series on hAR100Q mice (male hAR100Q mice, formulated chow approx. 15 mg/kg from 5 weeks of age, vs vehicle) is given as “rescued weight loss”. Also, in series [1] (WT littermates, chow approx. 15 mg/kg, vs vehicle), the “all paw grip strength in WT littermates” value is “similar”. Further, the “muscle endurance, forced treadmill distance, WT littermates” value in series [1] (WT littermates, week 11, vehicle versus compound chow) is on record as “No differences were observed”. Further, the “body weight over time in WT littermates” value in series [1] (male WT littermates, formulated chow approx. 15 mg/kg) is “no impact”. Besides, the “polyQ-AR degradation compared to control, global proteomics” value in the series on polyQ-AR [2] (12 nM, SBMA hiPSC-myotubes) was “induces degradation of polyQ-AR; also recorded: degrades polyQ-AR”. In addition, the “neosubstrates (off-target substrates) identified” value in the series with polyQ-AR [2] (out of ~7,600 proteins detected in myotubes) is listed as “single neosubtrate; also recorded: only one neosubstrate”. Moreover, in the series on polyQ-AR [3], the DC50 is 0.6 to 0.8 nM and the “Dmax, polyQ-AR in SBMA hiPSC-myotubes” value is given as 83-96%. Moreover, the fraction unbound in series [4] worked out at 0.0044.

The term DC50 denotes the midpoint of the concentration-degradation curve. Usually fraction unbound stands for free concentration divided by total concentration.
